For assay [1], the target named is Calcium/calmodulin-dependent protein kinase type II subunit alpha (Homo sapiens) (UniProt Q9UQM7).
For assay [2], the target named is Calcium/calmodulin-dependent protein kinase type II subunit beta (Homo sapiens) (UniProt Q13554).
Assay [3] deals with Cyclin-dependent kinase 2 (Homo sapiens, UniProt P24941).
Assay [4] addresses Cyclin-dependent kinase 6 (Homo sapiens) (UniProt Q00534).
In assay [5] the target is Cyclin-dependent kinase-like 1 (Homo sapiens) (UniProt Q00532).
The target of assay [6] is Dual specificity protein kinase CLK2 (Homo sapiens) (UniProt P49760).
Assay [7] addresses Casein kinase I isoform gamma-1 (Homo sapiens) (UniProt Q9HCP0).
Assay [8] deals with Casein kinase I isoform gamma-2 (Homo sapiens) (UniProt P78368).
For assay [9], the target named is Glycogen synthase kinase-3 beta (Homo sapiens, UniProt P49841).
Assay [10] concerns the target T1, Mitogen-activated protein kinase kinase kinase 5 (Homo sapiens) (UniProt Q99683).
T1 sequence (whole entry): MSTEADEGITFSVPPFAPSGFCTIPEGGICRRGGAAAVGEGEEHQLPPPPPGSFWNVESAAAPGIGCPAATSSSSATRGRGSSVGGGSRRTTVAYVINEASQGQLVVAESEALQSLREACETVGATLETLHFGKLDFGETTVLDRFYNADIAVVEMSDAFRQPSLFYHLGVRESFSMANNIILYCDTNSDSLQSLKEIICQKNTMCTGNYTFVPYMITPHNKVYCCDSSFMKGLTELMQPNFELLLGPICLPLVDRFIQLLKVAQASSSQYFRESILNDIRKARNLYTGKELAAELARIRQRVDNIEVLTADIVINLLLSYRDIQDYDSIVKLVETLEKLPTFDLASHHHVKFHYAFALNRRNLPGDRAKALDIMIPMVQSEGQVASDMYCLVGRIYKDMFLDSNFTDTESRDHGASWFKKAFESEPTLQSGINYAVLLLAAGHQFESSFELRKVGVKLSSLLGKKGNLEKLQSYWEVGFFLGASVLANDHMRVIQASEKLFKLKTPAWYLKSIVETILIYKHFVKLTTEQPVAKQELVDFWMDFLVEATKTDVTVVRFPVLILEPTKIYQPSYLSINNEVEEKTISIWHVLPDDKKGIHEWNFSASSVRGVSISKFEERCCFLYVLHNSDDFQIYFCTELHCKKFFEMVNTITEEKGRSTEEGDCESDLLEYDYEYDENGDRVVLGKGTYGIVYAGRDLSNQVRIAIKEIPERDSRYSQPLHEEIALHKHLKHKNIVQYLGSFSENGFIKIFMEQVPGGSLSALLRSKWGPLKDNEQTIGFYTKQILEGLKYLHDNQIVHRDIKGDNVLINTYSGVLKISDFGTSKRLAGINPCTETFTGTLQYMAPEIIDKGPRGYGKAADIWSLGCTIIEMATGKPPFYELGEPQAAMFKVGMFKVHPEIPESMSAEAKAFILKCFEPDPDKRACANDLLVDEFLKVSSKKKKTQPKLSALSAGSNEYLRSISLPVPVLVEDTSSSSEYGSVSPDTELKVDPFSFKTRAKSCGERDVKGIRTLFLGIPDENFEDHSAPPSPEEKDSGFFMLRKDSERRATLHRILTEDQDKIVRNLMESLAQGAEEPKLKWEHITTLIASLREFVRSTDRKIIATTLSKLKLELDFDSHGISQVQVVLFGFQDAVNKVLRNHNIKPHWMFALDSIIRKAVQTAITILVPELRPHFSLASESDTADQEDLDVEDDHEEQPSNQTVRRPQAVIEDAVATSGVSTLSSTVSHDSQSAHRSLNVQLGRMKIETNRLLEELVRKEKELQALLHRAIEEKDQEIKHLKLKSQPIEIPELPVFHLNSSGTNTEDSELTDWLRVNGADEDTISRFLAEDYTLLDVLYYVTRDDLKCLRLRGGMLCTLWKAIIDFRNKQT

The target of assay [11] is Mitogen-activated protein kinase 6 (Homo sapiens) (UniProt Q16659).
Sequence of Mitogen-activated protein kinase 6 (Homo sapiens) (Q16659 whole entry): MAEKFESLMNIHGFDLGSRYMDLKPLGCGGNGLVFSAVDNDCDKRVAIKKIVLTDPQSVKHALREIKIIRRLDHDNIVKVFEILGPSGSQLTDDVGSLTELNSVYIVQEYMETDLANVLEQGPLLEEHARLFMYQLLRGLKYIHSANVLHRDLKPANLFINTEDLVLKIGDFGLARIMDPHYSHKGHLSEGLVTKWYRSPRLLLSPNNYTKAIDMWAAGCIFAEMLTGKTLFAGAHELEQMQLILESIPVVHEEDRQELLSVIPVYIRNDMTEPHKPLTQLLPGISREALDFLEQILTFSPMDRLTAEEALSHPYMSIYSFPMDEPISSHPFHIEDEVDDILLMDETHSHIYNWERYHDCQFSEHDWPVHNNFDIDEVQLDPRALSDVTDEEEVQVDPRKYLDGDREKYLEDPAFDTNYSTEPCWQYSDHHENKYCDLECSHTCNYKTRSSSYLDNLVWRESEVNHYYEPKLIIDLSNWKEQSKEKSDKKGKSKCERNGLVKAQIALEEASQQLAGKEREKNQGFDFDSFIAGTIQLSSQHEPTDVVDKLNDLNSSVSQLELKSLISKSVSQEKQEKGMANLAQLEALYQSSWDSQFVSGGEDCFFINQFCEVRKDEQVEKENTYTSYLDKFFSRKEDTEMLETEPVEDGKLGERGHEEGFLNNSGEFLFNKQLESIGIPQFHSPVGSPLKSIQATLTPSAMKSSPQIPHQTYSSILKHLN
The target of assay [12] is Serine/threonine-protein kinase 26 (Homo sapiens) (UniProt Q9P289).
Sequence of Serine/threonine-protein kinase 26 (Homo sapiens) (Q9P289 2-416 limits assumed): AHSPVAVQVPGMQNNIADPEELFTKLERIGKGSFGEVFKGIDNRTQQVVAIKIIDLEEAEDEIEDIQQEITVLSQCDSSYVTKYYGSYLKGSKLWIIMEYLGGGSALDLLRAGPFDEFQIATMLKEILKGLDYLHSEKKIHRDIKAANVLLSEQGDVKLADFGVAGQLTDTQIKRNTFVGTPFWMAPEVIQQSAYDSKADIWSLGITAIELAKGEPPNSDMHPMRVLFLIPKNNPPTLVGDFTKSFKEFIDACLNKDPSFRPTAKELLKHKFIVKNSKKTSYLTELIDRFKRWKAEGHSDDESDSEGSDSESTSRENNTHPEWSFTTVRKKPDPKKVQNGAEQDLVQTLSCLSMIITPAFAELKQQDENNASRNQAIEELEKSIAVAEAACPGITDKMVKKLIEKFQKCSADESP
In assay [13] the target is Serine/threonine-protein kinase OSR1 (Homo sapiens) (UniProt O95747).
Sequence of Serine/threonine-protein kinase OSR1 (Homo sapiens) (O95747 2-527 limits assumed): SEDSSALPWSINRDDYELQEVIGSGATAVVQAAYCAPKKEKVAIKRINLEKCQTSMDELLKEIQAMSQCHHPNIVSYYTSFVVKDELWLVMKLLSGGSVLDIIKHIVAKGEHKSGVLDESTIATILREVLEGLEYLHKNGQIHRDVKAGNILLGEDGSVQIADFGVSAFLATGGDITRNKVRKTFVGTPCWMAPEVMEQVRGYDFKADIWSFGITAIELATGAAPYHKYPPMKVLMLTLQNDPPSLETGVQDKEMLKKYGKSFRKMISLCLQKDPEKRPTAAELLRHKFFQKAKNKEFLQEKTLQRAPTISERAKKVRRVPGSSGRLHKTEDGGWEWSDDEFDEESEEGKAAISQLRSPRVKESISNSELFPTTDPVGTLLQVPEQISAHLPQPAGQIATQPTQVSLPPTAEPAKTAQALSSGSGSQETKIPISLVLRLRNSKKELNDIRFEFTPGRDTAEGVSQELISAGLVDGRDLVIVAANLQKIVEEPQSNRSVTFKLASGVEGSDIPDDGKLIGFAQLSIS
For assay [14], the target named is Serine/threonine-protein kinase PAK 6 (Homo sapiens) (UniProt Q9NQU5).
Sequence of Serine/threonine-protein kinase PAK 6 (Homo sapiens) (Q9NQU5 whole entry, looked up): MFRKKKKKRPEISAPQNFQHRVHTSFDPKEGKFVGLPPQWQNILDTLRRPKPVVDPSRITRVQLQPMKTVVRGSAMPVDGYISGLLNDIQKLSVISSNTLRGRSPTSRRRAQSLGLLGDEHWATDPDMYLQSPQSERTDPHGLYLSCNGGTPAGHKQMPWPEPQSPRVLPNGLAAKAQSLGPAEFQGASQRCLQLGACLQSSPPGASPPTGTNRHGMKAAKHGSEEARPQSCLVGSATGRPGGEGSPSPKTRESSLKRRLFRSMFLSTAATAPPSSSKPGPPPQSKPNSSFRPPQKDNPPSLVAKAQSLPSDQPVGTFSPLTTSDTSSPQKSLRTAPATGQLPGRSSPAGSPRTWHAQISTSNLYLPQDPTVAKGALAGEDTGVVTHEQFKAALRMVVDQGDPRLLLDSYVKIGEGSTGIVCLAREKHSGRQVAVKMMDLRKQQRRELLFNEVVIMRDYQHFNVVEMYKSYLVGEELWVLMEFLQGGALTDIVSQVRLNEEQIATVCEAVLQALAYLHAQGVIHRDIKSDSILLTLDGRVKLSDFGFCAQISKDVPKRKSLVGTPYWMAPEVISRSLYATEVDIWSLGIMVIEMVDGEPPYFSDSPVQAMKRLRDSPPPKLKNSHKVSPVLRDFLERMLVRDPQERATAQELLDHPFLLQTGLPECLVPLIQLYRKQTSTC
For assay [15], the target named is Serine/threonine-protein kinase pim-1 (Homo sapiens) (UniProt P11309).
Sequence of Serine/threonine-protein kinase pim-1 (Homo sapiens) (P11309 whole entry, looked up): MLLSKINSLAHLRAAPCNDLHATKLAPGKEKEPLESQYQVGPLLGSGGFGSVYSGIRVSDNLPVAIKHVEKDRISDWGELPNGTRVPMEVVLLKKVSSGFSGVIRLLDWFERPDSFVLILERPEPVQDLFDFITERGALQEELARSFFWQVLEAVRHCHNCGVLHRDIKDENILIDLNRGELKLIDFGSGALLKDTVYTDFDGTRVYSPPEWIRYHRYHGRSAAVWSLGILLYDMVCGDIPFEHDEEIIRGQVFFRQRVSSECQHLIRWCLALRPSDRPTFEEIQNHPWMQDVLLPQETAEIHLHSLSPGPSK
For assay [16], the target named is Serine/threonine-protein kinase pim-2 (Homo sapiens, UniProt Q9P1W9).
Assay [17] addresses Ribosomal protein S6 kinase alpha-3 (Homo sapiens) (UniProt P51812).
Assay [18] concerns the target Serine/threonine-protein kinase 16 (Homo sapiens) (UniProt O75716).
Assay [19] addresses T2, Serine/threonine-protein kinase 17A (Homo sapiens) (UniProt Q9UEE5).
T2 sequence (whole entry): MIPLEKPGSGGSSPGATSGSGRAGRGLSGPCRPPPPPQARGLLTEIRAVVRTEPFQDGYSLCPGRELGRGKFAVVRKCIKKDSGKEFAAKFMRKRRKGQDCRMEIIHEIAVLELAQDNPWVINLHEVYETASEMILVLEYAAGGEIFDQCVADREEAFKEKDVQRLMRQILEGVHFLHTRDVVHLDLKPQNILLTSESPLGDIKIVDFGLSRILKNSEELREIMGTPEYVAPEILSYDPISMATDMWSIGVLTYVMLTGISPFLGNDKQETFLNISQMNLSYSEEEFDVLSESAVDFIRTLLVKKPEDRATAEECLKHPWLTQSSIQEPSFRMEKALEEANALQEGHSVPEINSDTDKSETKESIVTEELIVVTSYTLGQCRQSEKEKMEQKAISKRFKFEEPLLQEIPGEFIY

For assay [20], the target named is TRAF2 and NCK-interacting protein kinase (Homo sapiens) (UniProt Q9UKE5).
Assay [21] concerns the target Serine/threonine-protein kinase VRK2 (Homo sapiens) (UniProt Q86Y07).

Data on six molecules can be found in ChEMBL document CHEMBL1145498, “A systematic interaction map of validated kinase inhibitors with Ser/Thr kinases” (Proc Natl Acad Sci U S A, 2007).

Sequence of Calcium/calmodulin-dependent protein kinase type II subunit alpha (Homo sapiens) (Q9UQM7 whole entry): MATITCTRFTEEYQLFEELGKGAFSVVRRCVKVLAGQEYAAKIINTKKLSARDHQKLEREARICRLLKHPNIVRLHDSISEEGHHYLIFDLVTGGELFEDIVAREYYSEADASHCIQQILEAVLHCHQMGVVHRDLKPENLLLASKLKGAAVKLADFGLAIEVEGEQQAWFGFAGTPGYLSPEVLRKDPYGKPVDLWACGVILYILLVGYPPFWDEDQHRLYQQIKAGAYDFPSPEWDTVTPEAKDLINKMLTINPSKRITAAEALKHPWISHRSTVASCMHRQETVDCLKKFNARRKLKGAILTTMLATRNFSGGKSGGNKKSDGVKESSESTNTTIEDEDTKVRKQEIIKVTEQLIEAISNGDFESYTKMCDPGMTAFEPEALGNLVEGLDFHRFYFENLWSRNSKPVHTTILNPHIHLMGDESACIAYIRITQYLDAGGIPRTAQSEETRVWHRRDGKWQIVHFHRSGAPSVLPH
Sequence of Serine/threonine-protein kinase VRK2 (Homo sapiens) (Q86Y07 whole entry): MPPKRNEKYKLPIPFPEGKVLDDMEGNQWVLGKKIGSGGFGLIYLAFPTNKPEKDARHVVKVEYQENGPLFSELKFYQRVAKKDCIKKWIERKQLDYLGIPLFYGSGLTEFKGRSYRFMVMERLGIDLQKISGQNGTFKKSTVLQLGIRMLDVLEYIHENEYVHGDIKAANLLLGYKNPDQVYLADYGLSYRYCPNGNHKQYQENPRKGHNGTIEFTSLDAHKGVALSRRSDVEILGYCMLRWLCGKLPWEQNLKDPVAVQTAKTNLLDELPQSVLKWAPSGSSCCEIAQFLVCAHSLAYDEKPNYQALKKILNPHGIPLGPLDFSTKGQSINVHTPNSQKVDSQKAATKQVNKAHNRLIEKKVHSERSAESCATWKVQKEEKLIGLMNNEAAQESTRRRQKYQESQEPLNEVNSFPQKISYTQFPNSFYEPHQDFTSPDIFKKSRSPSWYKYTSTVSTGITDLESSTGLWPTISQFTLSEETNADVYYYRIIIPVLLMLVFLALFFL
Sequence of Serine/threonine-protein kinase 16 (Homo sapiens) (O75716 whole entry): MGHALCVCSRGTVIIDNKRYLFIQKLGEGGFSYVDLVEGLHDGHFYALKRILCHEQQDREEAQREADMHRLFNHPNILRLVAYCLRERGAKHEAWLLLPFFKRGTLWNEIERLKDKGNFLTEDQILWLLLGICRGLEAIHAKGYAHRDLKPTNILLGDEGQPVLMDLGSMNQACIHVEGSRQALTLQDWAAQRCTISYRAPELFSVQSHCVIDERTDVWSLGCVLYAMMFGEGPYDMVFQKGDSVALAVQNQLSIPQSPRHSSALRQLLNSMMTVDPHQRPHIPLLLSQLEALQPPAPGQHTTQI
Sequence of Calcium/calmodulin-dependent protein kinase type II subunit beta (Homo sapiens) (Q13554 whole entry): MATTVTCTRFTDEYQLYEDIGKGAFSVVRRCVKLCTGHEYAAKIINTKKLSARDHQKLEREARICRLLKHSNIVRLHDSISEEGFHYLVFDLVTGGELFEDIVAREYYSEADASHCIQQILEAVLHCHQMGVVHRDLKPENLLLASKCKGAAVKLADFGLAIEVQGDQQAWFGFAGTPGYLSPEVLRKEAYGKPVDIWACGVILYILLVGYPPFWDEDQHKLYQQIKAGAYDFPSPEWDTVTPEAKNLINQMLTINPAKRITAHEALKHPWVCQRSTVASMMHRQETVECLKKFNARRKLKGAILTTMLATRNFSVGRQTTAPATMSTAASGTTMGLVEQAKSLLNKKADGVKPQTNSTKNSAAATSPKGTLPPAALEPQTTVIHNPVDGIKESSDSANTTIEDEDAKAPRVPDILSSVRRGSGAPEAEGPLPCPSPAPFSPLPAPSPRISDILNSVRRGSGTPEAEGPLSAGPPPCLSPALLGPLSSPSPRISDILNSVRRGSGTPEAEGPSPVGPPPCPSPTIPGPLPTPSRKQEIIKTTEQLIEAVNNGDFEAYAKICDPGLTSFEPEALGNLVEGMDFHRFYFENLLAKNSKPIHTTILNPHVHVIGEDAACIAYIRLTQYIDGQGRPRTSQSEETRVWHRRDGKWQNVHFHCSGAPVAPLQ
Sequence of Cyclin-dependent kinase 6 (Homo sapiens) (Q00534 whole entry): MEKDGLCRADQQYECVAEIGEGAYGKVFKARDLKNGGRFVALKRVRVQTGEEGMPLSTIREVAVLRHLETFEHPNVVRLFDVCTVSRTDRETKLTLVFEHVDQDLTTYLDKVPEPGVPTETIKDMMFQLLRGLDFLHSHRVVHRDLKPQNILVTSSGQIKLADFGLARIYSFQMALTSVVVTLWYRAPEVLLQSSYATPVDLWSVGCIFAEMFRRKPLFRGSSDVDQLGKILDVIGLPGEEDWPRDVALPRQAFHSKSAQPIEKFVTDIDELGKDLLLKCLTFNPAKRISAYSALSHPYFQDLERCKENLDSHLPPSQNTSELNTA

In the case of `Cc1nc2sccn2c(=O)c1CCN1CCC(=C(c2ccccc2)c2ccc(F)cc2)CC1`, the ΔTm was found to be 1.3 °C in assay [1]; 0.9 °C in [2]; 1.2 °C in [3]; 0 °C in [4]; 0.4 °C in [5]; 2.8 °C in [6]. In addition, the thermal shift (ΔTm) in assay [7] was -0.2 °C; in assay [8] it was 0.3 °C; in assay [9] it was 2.6 °C; in [10], 5.8 °C; in assay [11], 0.2 °C; in [12], -0.1 °C. The ΔTm in assay [13] is 1 °C; in [14] it was 0.8 °C; in assay [15] it was 6.6 °C; in assay [16], 3.3 °C; in [17], 2.9 °C; in assay [18], 3.1 °C. Also, the ΔTm in assay [19] came out at 8.8 °C; in [20], 2.9 °C; in assay [21], 0.2 °C.
`NCCNS(=O)(=O)c1cccc2c(Cl)cccc12`: the ΔTm in assay [1] is 0.7 °C; in assay [2], 0.4 °C; in assay [3] it was 0.1 °C; in assay [4] it was -0.1 °C; in assay [5], -0.1 °C; in assay [6] it was 0.3 °C. The ΔTm in assay [7] worked out at 0.5 °C; in [8] it was 0 °C; in assay [9], 0.1 °C; in assay [10] it was 0.4 °C; in assay [11], 0.3 °C; in [12], 0 °C. In addition, the shift in melting temperature (ΔTm) was 0.7 °C in assay [13]; 0.2 °C in assay [14]; 2.9 °C in [15]; 1.7 °C in assay [16]; 0.2 °C in [17]; 0.2 °C in assay [18]. For the same molecule, the ΔTm was 1 °C in [19], 0 °C in assay [20] and 0.1 °C in [21].
As for `C/C(O)=C(\C#N)C(=O)Nc1cc(Br)ccc1Br`, the shift in melting temperature (ΔTm) in assay [1] worked out at 0.1 °C; in assay [2], 0 °C; in assay [3], 1 °C; in assay [4], 0.2 °C; in assay [5], 0.8 °C; in assay [6], 0.5 °C. The ΔTm was 0.7 °C in assay [7]; 0.4 °C in assay [8]; 1.8 °C in assay [9]; -0.7 °C in assay [10]; 0.4 °C in [11]; 0.2 °C in assay [12]. For the same molecule, the ΔTm in assay [13] was 1.1 °C; in [14], -0.2 °C; in assay [15] it was 1.4 °C; in [16], 1.9 °C; in assay [17] it was 0.2 °C; in assay [18] it was 0.4 °C. In addition, the ΔTm is 0.6 °C in assay [19], -0.1 °C in assay [20] and 0.1 °C in [21].
For `C[C@@H]1C[C@H]2O[C@@H]2/C=C\C=C\C(=O)Cc2c(Cl)c(O)cc(O)c2C(=O)O1` [RADICICOL], the ΔTm in [1] is 0 °C; in assay [2] it was 0.1 °C; in assay [3], 0.5 °C; in assay [4], -0.5 °C; in [5], -0.2 °C; in [6], 0.1 °C. Besides, the ΔTm in [7] was 0.3 °C; in [8], 0 °C; in assay [9] it was -0.3 °C; in [10], -0.2 °C; in assay [11] it was 0.4 °C; in [12], -0.2 °C. Besides, the ΔTm in assay [13] is 1.4 °C; in [14], 0.3 °C; in assay [15] it was -0.1 °C; in assay [16], 0.1 °C; in assay [17] it was 0.9 °C; in assay [18] it was 0.3 °C. For the same molecule, the ΔTm in assay [19] is 1 °C; in assay [20], -0.3 °C; in assay [21], 0.2 °C.
Regarding `CSc1nc(-c2ccc(F)cc2)c(-c2ccnc(NC(C)c3ccccc3)c2)[nH]1` (racemic), the shift in melting temperature (ΔTm) in assay [1] is 0.6 °C; in assay [2], 0 °C; in [3] it was -0.5 °C; in [4], 0 °C; in assay [5], 0.8 °C; in assay [6], 0.1 °C. For the same molecule, the ΔTm in assay [7] came to 3.6 °C; in assay [8] it was 3.4 °C; in assay [9], 0 °C; in [10], 0.4 °C; in assay [11], 0.4 °C; in assay [12], 0.7 °C. In addition, the ΔTm in [13] was 0.3 °C; in assay [14], -0.3 °C; in [15], -0.4 °C; in assay [16] it was -0.2 °C; in [17], 0.2 °C; in assay [18], -0.1 °C. Moreover, the ΔTm was 0.1 °C in assay [19], -1.2 °C in assay [20] and 0.2 °C in assay [21].
Take `Nc1cccc(-c2cc3c(Oc4cccc(O)c4)ncnc3[nH]2)c1`: the ΔTm came to 0.5 °C in assay [1]; 0.5 °C in assay [2]; 0.9 °C in [3]; 0.9 °C in assay [4]; 0.6 °C in [5]; 0.4 °C in [6]. Moreover, the ΔTm in assay [7] came to 1.5 °C; in assay [8], 1.2 °C; in assay [9], 7.6 °C; in assay [10], 0.5 °C; in assay [11], 1.2 °C; in [12], 0.8 °C. Besides, the ΔTm stood at 1.7 °C in [13]; 1.3 °C in assay [14]; 0.7 °C in assay [15]; 0.8 °C in [16]; 5.7 °C in [17]; 3.5 °C in [18]. Also, the ΔTm in assay [19] is 0.9 °C; in [20], -0.4 °C; in assay [21] it was 0.5 °C.

Usually ΔTm stands for the shift of the melting midpoint relative to a reference.
